The experiment deals with uridine-cytidine kinase (Mus musculus). Description: Binding affinity to uridine kinase from L1210. was determined from the dixon plot.

Molecules are shown by their SMILES.

This note sets out measurements from BindingDB's records for doi:10.1021/jm00378a002 (1985).

A word on the Ki: it is a dissociation constant, usually derived from enzyme kinetics or from competition with a known ligand. Low readings indicate a stronger hold on the target, high ones a looser hold on the target.

`O=c1ccn([C@@H]2C=C(CO)[C@@H](O)[C@H]2O)c(=O)[nH]1` [1-(4,5-Dihydroxy-3-hydroxymethyl-cyclopent-2-enyl)-4-hydroxy-1H-pyrimidin-2-one] showed a Ki of 230 µM.
